Results: patent publication US20050069887A1, “Dna synthesis promoters dna polymerase-associated factors and utilization thereof” (priority 2001, published 2005)

Key:
KOD-plus DNA polymerase [1] = biological target: T1, KOD-plus DNA polymerase (Thermococcus kodakarensis, UniProt P77933, DEL407-766/DEL853-1389); assay: PCR using KOD-plus with oxalate ion and betaine (Example 2-3); format: biochemical, Thermococcus kodakaraensis KOD1; details: 2 mM potassium oxalate, FIG. 13
T1 construct: purchased Toyobo
Procedure: Oxalate ion and betaine were investigated for their synergistic effectiveness in amplification of a target DNA which cannot be amplified by normal PCR, using KOD-plus DNA polymerase, i.e. a hot start enzyme which is a mixture of KOD (α-type enzyme) and two kinds of KOD antibodies. Potassium oxalate was added to the PCR buffer supplied with KOD-plus (TOYOBO CO., LTD.) to attain a final concentration of 2 mM. Also used were 0.2 mM dNTPs and 0.3 μM of a pair of primers of SEQ ID NOs: 14 and 15. 20 ng of genomic DNA derived from human cell line K562 was used as a template. This reaction mixture was subjected to PCR by using GeneAmp2400 (PE Applied Biosystems) to investigate the influence of varying the concentration of betaine on the PCR results. The PCR conditions were as follows: 1 preliminary reaction of 94° C. for 2 minutes, and then 35 cycles of 94° C. for 15 seconds, 60° C. for 30 seconds and 68° C. for 8.5 minutes.

KOD-plus DNA polymerase [2] = biological target: T1, KOD-plus DNA polymerase; format: biochemical, Thermococcus kodakaraensis KOD1
Procedure: The effect produced by the addition of oxalate ion to a hot start enzyme was investigated using a hot start enzyme KOD-plus DNA polymerase containing KOD α-type enzyme) and two kinds of KOD antibodies. The PCR buffer supplied with KOD-plus (manufactured by Toyobo), 0.2 mM dNTPs and 0.3 μM of a primer pair of SEQ ID Nos:8 and 9 were used. PCR was performed using 2.5 U KOD-plus DNA polymerase and 20 ng of Genomic DNA derived from human cell line K562 as a template to investigate the influence of varying the concentration of oxalate ion added on the PCR results. The PCR conditions were as follows: 1 preliminary reaction of 94° C. for 2 minutes, and then 35 cycles of 94° C. for 15 seconds, 60° C. for 30 seconds and 68° C. for 8.5 minutes. The PCR was performed using GeneAmp2400 (PE Applied Biosystems).

T1 sequence (P77933 other isoform, or with tags, fused parts or gaps DEL407-766/DEL853-1389): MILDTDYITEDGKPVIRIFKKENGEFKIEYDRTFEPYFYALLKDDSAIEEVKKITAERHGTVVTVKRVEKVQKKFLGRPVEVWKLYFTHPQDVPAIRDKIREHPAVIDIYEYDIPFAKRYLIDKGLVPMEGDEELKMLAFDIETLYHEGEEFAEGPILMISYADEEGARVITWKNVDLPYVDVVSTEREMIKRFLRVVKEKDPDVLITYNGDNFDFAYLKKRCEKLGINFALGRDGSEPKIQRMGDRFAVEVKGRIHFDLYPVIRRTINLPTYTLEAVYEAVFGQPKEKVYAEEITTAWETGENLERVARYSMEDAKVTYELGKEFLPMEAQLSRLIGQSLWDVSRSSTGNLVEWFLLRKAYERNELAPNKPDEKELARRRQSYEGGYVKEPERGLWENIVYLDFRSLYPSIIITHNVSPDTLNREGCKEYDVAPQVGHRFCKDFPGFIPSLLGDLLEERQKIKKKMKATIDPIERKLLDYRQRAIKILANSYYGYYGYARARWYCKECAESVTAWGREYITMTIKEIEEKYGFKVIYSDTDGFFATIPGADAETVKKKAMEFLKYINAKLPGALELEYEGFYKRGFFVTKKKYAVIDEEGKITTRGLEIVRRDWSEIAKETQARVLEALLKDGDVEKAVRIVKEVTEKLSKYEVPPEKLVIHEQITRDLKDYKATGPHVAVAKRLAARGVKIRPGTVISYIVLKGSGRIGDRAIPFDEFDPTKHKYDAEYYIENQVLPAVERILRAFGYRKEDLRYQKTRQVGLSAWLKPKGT

Compound: C[N+](C)(C)CC(=O)[O-] [betaine, trimethylglycine]
- betaine concentration at which the amount of amplification was greatest (KOD-plus DNA polymerase [1]): 1.5 M
- betaine concentration giving an increased amount of amplification of the target DNA (KOD-plus DNA polymerase [1]): 0.5 to 1.5 M

Compound: O=C([O-])C(=O)[O-].[K+].[K+] [potassium oxalate]
- amount of the target DNA amplified (KOD-plus DNA polymerase [2]; 5 mM of potassium oxalate): a decrease in the amount of the target DNA amplified was found
- optimal concentration of potassium oxalate (KOD-plus DNA polymerase [2]; FIG. 8): about 3 mM
- effect on extra bands and target amplification (KOD-plus DNA polymerase [2]; in the presence of potassium oxalate, FIG. 8): no extra bands were observed and only the target DNA was amplified
